Read-outs that look alike come from different tables or passages of the source.
Columns and labels:
[1] = Immersion test: binding / wash-out of photocatalysts from SolGel coatings (1 h deionised water, UV-VIS signal loss); format: physicochemical; conditions: Rezeptur 5 coating on glass, dye 10 bis 40 mM; 1 h deionised water pH 6 ± 1, 22 ± 3 °C; relative UV-VIS signal loss at absorption maximum
Experimental: Für alle Untersuchungen wurden nach Beispiel 8 beschichtete Glasträger verwendet.
Um das Auswaschen der verschiedenen Farbstoffe in den Sol-Gel-Beschichtungen zu beurteilen wurde ein Immersionstest in vollentsalztem Wasser mit einem pH-Wert von (6 ± 1) und einer Wassertemperatur von (22 ± 3) °C für eine Stunde durchgeführt. Dazu wurden zunächst Schichten (Rezeptur 5, Beispiel 4, aufgefüllt mit 3,0 mL 2-Propanol; sh. Tabelle 3) mit erhöhter Farbstoffkonzentration (10 bis 40 mM; um die notwendige Auflösung bei der dünnen Schicht zu erreichen) auf Glas-Objektträgern erzeugt. Diese wurden nach dem Ablüften bei Raumtemperatur (30 min) eine Stunde bei 60°C nachgehärtet. Anschließend wurden die Schichten direkt im UV-VIS-Spektrometer vermessen. Die Ausgangswerte (Absorptionsmaximum des jeweiligen Farbstoffs) sollten dabei zwischen 0,05 A.U. und 1,50 A.U. liegen.
Nach einer Stunde in VE-Wasser wurden die Prüfkörper getrocknet und erneut gemessen. Aus den beiden Messungen wurde ein relativer Signalverlust in Prozent bei dem farbstoffspezifischen Absorptionsmaximum bestimmt.
Dieser Immersionstest diente dazu, das Auswaschverhalten verschiedener Farbstoffe aus Beschichtungssystemen zu beurteilen. Weiter soll er dabei helfen, verschiedene Farbstoffklassen oder verschiedene Farbstoffderivate einer Farbstoffklasse bezüglich dieser Charakteristik miteinander zu vergleichen. Die Ergebnisse sind in den folgenden Tabellen sortiert nach Stoffgruppen zusammengefasst: […]

[2] = test system: S.aureus; format: cell-based; conditions: for Log10 Reduktion Probe / Log10 Reduktion Dunkelkontrolle: label = Katalysator of the coating, Rezeptur 2 nach Beispiel 2c on Melamin with S-25a 2 mM
[3] = test system: Bakterien; assay: Room light tests (Raumlichtversuche): antimicrobial efficacy at 10 µW/cm^2 for 24 h; format: cell-based; conditions: Farbstoff 5 mM, coating Rezeptur 3, Beispiel 2a (2,5 eq aqueous boric acid, 50 mM)
Experimental: Um die antimikrobielle Wirksamkeit in einem realen Szenario abzuschätzen, wurden sogenannte Raumlichtversuche durchgeführt. Dazu wurden die mit Bakterien versetzten Probenträger mit einer, für Innenräume repräsentativen Lichtintensität von 10 µW/cm^2 für einen Zeitraum von 24 h bestrahlt.
Herstellung der Beschichtung erfolgte gemäß Beispiel 2a (2,5 eq wässrige Borsäure, 50 mM), mit Rezeptur 3. Die Ergebnisse sind in der Tabelle 63 zusammengefasst. Tabelle 63: Antimikrobielle Wirksamkeit bei Raumlichtbedingungen

[4] = test system: S. enterica; assay: Bacteria test following modified ISO 22196, photodynamic effect of different photocatalysts in the SolGel coating on S. enterica; format: cell-based; conditions: Rezeptur 4 nach Beispiel 5 on Melamin, 4 h
Source text: (§1) Die Bestimmung der antimikrobiellen Aktivität erfolgte nach einer modifizierten Version der ISO 22196:2011-08 ("Messung von antibakterieller Aktivität auf Kunststoff- und anderen porenfreien Oberflächen", Ausgabedatum: 2011-08).
(§2) Bei der Testdurchführung wurde ein dünner Flüssigkeitsfilm, in dem die Bakterien enthalten sind (1,25 x 10^4 /cm2), direkt auf die Probekörper (2,5 cm x 2,5 cm) aufgebracht. Direkt nach Beimpfung wurden von der Nullprobe die Bakterien von den Probekörperoberflächen mittels Ultraschall und Vortexen abgelöst und die Keimzahl (KBE (engl. CFU), Kolonie-bildende Einheit) bestimmt (t0-Wert). Ein weiterer Satz Nullproben und antimikrobiell ausgestatteter Proben wurden mit Bakterien im Flüssigkeitsfilm bei Raumtemperatur inkubiert. Nach 4 h wurden überlebende Bakterien von den Probekörperoberflächen mittels Ultraschall und Vortexen abgelöst und die Keimzahl bestimmt (t4-Wert).
(§3) Im Unterschied zu der in der ISO 22196:2011-08 beschriebenen Methode wurde das Inokulum nicht mit einer Folie abgedeckt und die Inkubationszeit von 24 auf 4 Stunden reduziert. Weiterhin wurden die Platten der Proben 3 und 4 mit Licht mit einer Intensität von 300 µW/cm2 belichtet.
(§4) Der Bakterientest wurde in Anlehnung an ISO 22196 nach oben beschriebener Methode durchgeführt. Die Ergebnisse sind Tabelle 57a bis 57b dargestellt. Tabelle 57a: Photodynamische Wirkung verschiedener Katalysatoren in der SolGel Beschichtung gegen S.aureus

[5] = test system: I. monocytoqenes; assay: Bacteria test following modified ISO 22196, photodynamic effect of different photocatalysts in the SolGel coating on I. monocytoqenes; format: cell-based; conditions: Rezeptur 4 nach Beispiel 5 on Melamin, 4 h
Source text: as §1, §2, §3, §4

| Molecule | Verlust durch Auswaschen [1] [%] | other results |
| --- | --- | --- |
| COCCC1=Cc2nc1c(O)cc1[nH]c(cc1CCOC)c1nc(c(NC(C)=O)cc3[nH]c2cc3CCOC)C(CCOC)=C1 [S-70] | 4 | – |
| COCCC1=Cc2nc1ccc1[nH]c(cc1CCOC)c1nc(c(OCCCNC(=O)CCC(N)C(=O)O)cc3[nH]c2cc3CCOC)C(CCOC)=C1 (centres unmarked) [S-75] | 9 | – |
| CC(O)C(=O)[O][Al]([O]C(=O)C(C)O)[O]C(=O)C(C)O (centres unmarked) [AL] | – | Log10 Reduktion Probe ([2]; 4 h, 300 µW/cm2): 3,3±0,4; Log10 Reduktion Dunkelkontrolle ([2]; 4 h, dark): 0,2±0,7 |
| CC(=O)OCCC1=Cc2nc1ccc1[nH]c(cc1CCOC(C)=O)c1nc(c(O)cc3[nH]c2cc3CCOC(C)=O)C(CCOC(C)=O)=C1 [S-60a] | 8 | – |
| COCCC1=Cc2nc1ccc1[nH]c(cc1CCOC)c1nc(c(OCCCN)cc3[nH]c2cc3CCOC)C(CCOC)=C1 [S-62] | 3 | – |
| 2,7,12-Tris(pyridinio-p-tolyl)-17-(p-(methoxymethyl)phenyl) porphycen bromid [reference compound] | > 70 | – |
| CC(=O)OCCC1=Cc2nc1ccc1[nH]c(cc1CCOC(C)=O)c1nc3c(cc4[nH]c2cc4CCOC(C)=O)OCCC3=C1 [S-60b] | 2 | – |
| COCCC1=Cc2nc1ccc1[nH]c(cc1CCOC)c1nc(c(OCCCO)cc3[nH]c2cc3CCOC)C(CCOC)=C1 [S-61a] | 6 | – |
| COCCC1=Cc2nc1ccc1[nH]c(cc1CCOC)c1nc(c(O)cc3[nH]c2cc3CCOC)C(CCOC)=C1 [S-58a, 9-Hydroxy-2,7,12,17-tetra-(beta-methoxyethyl)porphycen] | 4 | S. aureus Log10 Reduktion Probe ([2]; Rezeptur 4 nach Beispiel 5 on Melamin, 4 h, 300 µW/cm2): 1,4±0,1; S. aureus Log10 Reduktion Dunkelkontrolle ([2]; Rezeptur 4 nach Beispiel 5 on Melamin, 4 h, dark): 0,0±0,1 |
| O=C1C(COc2ccc(CO)cc2)=Cc2cccc3cccc1c23 [S-13] | – | log reduction at 5000 µM ([3]; 24 h, dark control, read-out: Log10 Reduktion Dunkelkontrolle): 0.9; log reduction at 5000 µM ([3]; illuminated 10 µW/cm^2 for 24 h, read-out: Log10 Reduktion 24 h): 1.9 |
| COCCC1=Cc2nc1ccc1[nH]c(cc1CCOC)c1nc(c(OCCC[Si](OC)(OC)OC)cc3[nH]c2cc3CCOC)C(CCOC)=C1 [S-68] | 9 | – |
| CCCCCCCCCCOc1ccc(/C=C/C(=O)CC(=O)/C=C/c2ccc(OCCCCCCCCCC)cc2)cc1 [S-52a] | 13 | – |
| COCCC1=Cc2nc1ccc1[nH]c(cc1CCOC)c1nc(c(OC(=O)CCC(N)C(=O)O)cc3[nH]c2cc3CCOC)C(CCOC)=C1 (centres unmarked) [S-74] | 11 | – |
| NCCCOC1=CC(=O)c2cccc3cccc1c23 [S-08] | 13 | – |
| O=C1C(COc2ccc(O)cc2)=Cc2cccc3cccc1c23 [S-12] | 3 | – |
| OCCC1=Cc2nc1ccc1[nH]c(cc1CCO)c1nc(c(O)cc3[nH]c2cc3CCO)C(CCO)=C1 [Verbindungen S-59a] | 8 | – |
| O=P(N1CCCC1)(N1CCCC1)N1CCCC1 [PO] | – | Log10 Reduktion Probe ([2]; 4 h, 300 µW/cm2): 3,6±0,3; Log10 Reduktion Dunkelkontrolle ([2]; 4 h, dark): 0,0±0,1 |
| COCCC1=Cc2nc1ccc1[nH]c(cc1CCOC)c1nc(c(OCCCC(=O)O)cc3[nH]c2cc3CCOC)C(CCOC)=C1 [S-66a] | 3 | – |
| O=C1C(C[n+]2ccccc2)=Cc2cccc3cccc1c23 [S-24a] | 9 | Photodynamische Wirkung gegen S.aureus (Log10 Reduktion), compared with the values of S-25a ([2]; Rezeptur 2, Beispiel 2a, filled up with IPA 1:2/1:5/1:8, dye content varied (Tabelle 56)): im Rahmen des Fehlers die gleichen Werte; S. enterica Log10 Reduktion Probe ([4]; 300 µW/cm2): 4,5±0,8; S. enterica Log10 Reduktion Dunkelkontrolle ([4]; dark): 0,0±0,2; I. monocytoqenes Log10 Reduktion Probe ([5]; 300 µW/cm2): 4,5±0,3; I. monocytoqenes Log10 Reduktion Dunkelkontrolle ([5]; dark): 0,0±0,3 |

Source: patent publication EP4458916A1, “PHOTOCATALYTICALLY ACTIVE COATING COMPOSITION, METHOD FOR THE PRODUCTION THEREOF AND USE THEREOF” (priority 2023, dated 2024)
